Consider two compounds from patent US10562910B2, “Nitrogen-containing tricyclic compounds and uses thereof in medicine” (SUNSHINE LAKE PHARMA CO., LTD., priority 2016, dated 2020).

One data set deals with FXR-LBD (Homo sapiens (Human), UniProt Q96RI1). Put plainly: TR-FRET Farnesoid X Receptor Coactivator Assay. It is filed as biochemical. Conditions: TR-FRET farnesoid X receptor protein coactivator activity. The procedure:
Purchasing invitrogen PV4833 kits. The procedure refers to LanthaScreen™ TR-FRET Farnesoid X Receptor Coactivator Assay
First, the required amount of the compound was weighed and dissolved in 100% DMSO at the maximum concentration of 3000 μM. The solution at the maximum concentration was diluted by 3-fold serial dilution in DMSO to get 10 concentrations;
Second, the above prepared solutions of different concentrations were diluted to 50-fold with a buffer supplied with the kit, to 2× compound solution, followed by mixing and then 10 μL of the diluted solution was added to a 384 well plate;
Third, FXR-LBD was diluted with a buffer to 4× solution, and 5 μL of the diluent was added to the 384 well plate of second step;
Fourth, Fluorescein-SRC2-2 and Tb anti-GST antibody were diluted to 4× Fluorescein-SRC2-2 and Tb anti-GST antibody solution. Then two reagents were mixed together, and 5 μL of the mixture was added to the 384 well plate of third step;
Finally, the solution of the 384 well above was mixed uniformly by centrifuging, and then incubated at room temperature for 1 h. Then the TR-FRET Endpoint method was used for measuring the solution at wavelengths of 520 nm, 495 nm and 337 nm.
Background: In TR-FRET formats the signal depends on donor and acceptor labels being close together.

In data set [1] the target is FXR ligand binding domain (LBD) (Homo sapiens (Human), UniProt Q96RI1). In words: Mammalian one hybrid (M1H) GAL4 reporter gene assay in HEK293 cells. It is filed as cell-based. The note with it: GAL4 reporter gene test. From the text:
Mammalian one hybrid technology is also called chimeric receptor gene assay. Based on the GAL4 chimera receptor assay, the activity of compounds which mediated activation of FXR was detected by dual luciferase reporter assay. The methods were as follows: cDNA encoding the FXR ligand binding domain (LBD), the yeast GAL4 DNA binding domain (DBD) and the Renilla luciferase DNA were fused to construct a chimera expression plasmid pBIND-FXR (Promega). […] The plasmid pG5Luc (Promega) was used as the reporter plasmid, containing the GAL4 upstream activation sequence (UAS) and the Firefly luciferase receptor gene. All GAL4 reporter gene assays were done in HEK293 cells. Cells were cultured at 37° C., 5% CO2 under humidified conditions. […] The contents were mixed completely and incubated the mixtures for 15 minutes at room temperature. The volume of the transfection mixture was 2.5 μl/well. Trypsinized and diluted the cell slurry at a density of […] (100 μl/well for 96-well plate). Then added required volume of transfection mixture prepared previously into the cell slurry, and dispensed 100 μl/well of the cell slurry into the 96-well plate and incubated the plate for 24 hours at 37° C., 5% CO2 under humidified conditions. Compounds prediluted in complete medium were added into each well and then incubated at 37° C., 5% CO2 under humidified conditions for 18 hours. The firefly and renilla luciferase signal was assayed by Promega's Dual Luciferase Reporter Assay System.
The % Activation value was calculated by the following equation: Activation %=[(X−Min)/(Max−Min)]×100%. “X” is the “F/R” value from compounds. “F/R” means “Firefly/Renilla”. “Min” is the mean “F/R” value from no compound control. “Max” is the mean “F/R” value from reference compound control. Finally, the EC50 value of each compounds were calculated by GraphPrism 5.0.
On the technique in general: Reporter assays use an easily measured gene product as a stand-in for the process of interest.

Data set [2] is described as follows: Pharmacokinetics test in SD rats. It is filed as in vivo. The note with it: rat, plasma, male SD rats. The procedure:
Example 22 Pharmacokinetics Test
Experimental animals: six healthy adult male SD rats (purchased from Hunan SJA Laboratory Animal Co. Ltd.) were divided into two groups, three rats in each group, and the two groups were given intravenous injection and oral administration respectively.
Drug preparation: a quantity of a compound of the present invention was weighed, and 5% DMSO, 10% Kolliphor HS15 and 85% saline (0.9%) were added to give target concentrations of the compound solution.
Administration and sample collection: animals were fasted for 12 h before administration, and fed at the time point of 3 hours after the administration. SD rats of one group were given intravenous injection (IV, 1 mg/kg) via hind legs and SD rats of the other group were given oral administration (PO, 5 mg/kg) respectively. Then blood was collected in the rat tail vein at the time point of 0, 0.083, 0.25, 0.5, 1, 2, 4, 6, 8, 24 h respectively, and the blood volume was about 200-400 μL/time point. After the collection of whole blood at each time point, the collected blood was set in K2EDTA anticoagulant tube, and the tube was placed in the incubator with ice packs. All samples were centrifuged for 5 min at 4° C. at 4600 r/min within 15 min. Plasma was separated and collected. The concentrations of different compounds in the plasma of the rats after administration were measured using LC/MS/MS method, and the pharmacokinetic parameters were calculated according to the curve of the drug concentration-time.

FXR-LBD, sequence (Q96RI1 262-486): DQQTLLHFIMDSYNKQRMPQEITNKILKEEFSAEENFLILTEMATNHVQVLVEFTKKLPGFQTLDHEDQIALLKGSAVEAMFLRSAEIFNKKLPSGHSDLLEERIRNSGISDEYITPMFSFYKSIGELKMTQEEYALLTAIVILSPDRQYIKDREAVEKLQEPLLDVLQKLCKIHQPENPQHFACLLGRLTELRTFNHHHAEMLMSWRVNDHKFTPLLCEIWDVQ
FXR ligand binding domain (LBD), sequence (Q96RI1 261-481): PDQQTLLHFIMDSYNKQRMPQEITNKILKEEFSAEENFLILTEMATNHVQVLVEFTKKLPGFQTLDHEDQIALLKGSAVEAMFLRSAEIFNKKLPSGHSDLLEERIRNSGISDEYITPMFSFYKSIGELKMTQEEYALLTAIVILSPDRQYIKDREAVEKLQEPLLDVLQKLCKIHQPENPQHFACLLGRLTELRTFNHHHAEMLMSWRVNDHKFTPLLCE

By EC50 is commonly meant the concentration giving half of the maximal effect. Turning to `O=C(O)c1cc2c(cc1O)CCc1nc(OCc3c(-c4c(Cl)cccc4Cl)noc3C3CC3)ccc1O2` [Example 11, 2-((5-cyclopropyl-3-(2,6-dichlorophenyl)isoxazol-4-yl)methoxy)-8-hydroxy-10,11-dihydrobenzo[6,7]oxepino[3,2-b]pyridine-7-carboxylic acid], the EC50 was determined as 17 nM on FXR-LBD and 105 nM in data set [1].

What is called AUC(0-inf) is total exposure, with the tail of the curve extrapolated. Low values mean less exposure, high ones more exposure. By AUC(0-t) is commonly meant the area under the concentration-time curve up to a stated or last time point. One may read the Cmax as the peak of the concentration-time curve. The term MRT inf denotes the average time that molecules of a dose stay in the body. One may read the Tmax as the time at which the peak concentration occurs. The clearance is the rate of elimination divided by the concentration. High values mean a high capacity for elimination, low ones a low capacity for elimination. In general, half-life refers to the time in which the quantity being followed falls by half. A higher half-life goes with slow decline. As usually defined, the bioavailability is the share of a dose that reaches the circulation, judged against a reference dose that is usually intravenous. `O=C(O)c1ccc2c(c1)Oc1ccc(OCc3c(-c4c(Cl)cccc4Cl)noc3C3CC3)nc1CO2` [Example 2, 2-((5-cyclopropyl-3-(2,6-dichlorophenyl)isoxazol-4-yl)methoxy)-11H-benzo[2,3][1,4]dioxepino[6,5-b]pyridine-7-carboxylic acid] came in with an EC50 on FXR-LBD of 5.1 nM. In data set [2] (iv 1 mg/kg), this compound displayed an area under the curve AUC(0-inf) of 1150 ng·h/mL, an AUC(0-t) of 1150 ng·h/mL, a Cmax of 2060 ng/mL and an MRT inf of 32.9 min. Moreover, in data set [2] (iv 1 mg/kg), the Tmax was found to be 4.98 min, the clearance came to 14.8 mL/min/kg and the half-life is 53 min. For the same compound, in data set [2] (iv 1 mg/kg, read-out: Vss), the Vd was 0.479 L/kg. In addition, in data set [2] (po 5 mg/kg), the AUC(0-inf) amounted to 4110 ng·h/mL, the AUC(0-t) is 4110 ng·h/mL, the highest concentration (Cmax) amounted to 3640 ng/mL and the MRT inf came to 55.9 min. In addition, in data set [2] (po 5 mg/kg), the Tmax stood at 30 min and the half-life is 42.6 min. In addition, the bioavailability in data set [2] (po 5 mg/kg vs iv 1 mg/kg) came out at 72%.
